Experimental findings from ChEMBL document CHEMBL1123800 (J Med Chem, 1987) are described below.

Assay [1] is filed under the species Mustela putorius furo. The assay is described as follows: Inotropic activity as dose required to cause 20% positive or negative change in contractile force of papillary muscle from ferret (F). It is filed as functional, Muscle tissue.
Assay [2] addresses cAMP phosphodiesterase (Canis familiaris). The assay is described as follows: Inhibition of canine cardiac cAMP phosphodiesterase (cAMP-PDE).
In assay [3] the test system is Canis familiaris. The assay is described as follows: Equieffective dose for mean arterial pressure in anesthetized dogs for a maximum dose of 1.0 mg/kg. Values Ranges From :0.2,0.4. It is filed as functional, Canis lupus familiaris, Artery.
In assay [4] the test system is Canis familiaris. The assay is described as follows: Equieffective dose for contractility in anesthetized dogs for a maximum dose of 1.0 mg/kg. Values Ranges From :0.02-0.05. It is filed as functional, Canis lupus familiaris.
The subject of assay [5] is Canis familiaris. Kind of assay: Equieffective dose for heart rate in anesthetized dogs for a maximum dose of 1.0 mg/kg. Values Ranges From :0.01-0.8. It is filed as functional, Canis lupus familiaris.
In assay [6] the test system is Canis familiaris. Kind of assay: Equieffective dose for mean arterial pressure in anesthetized dogs for a maximum dose of 1.0 mg/kg. Values Ranges From :0.04-1.0. It counts as functional, Canis lupus familiaris, Artery.
Assay [7] relates to Canis familiaris. The assay is described as follows: Equieffective dose for contractility in anesthetized dogs for a maximum dose of 1.0 mg/kg. Values Ranges From :0.03-0.07. It is filed as functional, Canis lupus familiaris.
The test system of assay [8] is Canis familiaris. The assay is described as follows: Equieffective dose for heart rate in anesthetized dogs for a maximum dose of 1.0 mg/kg. Values Ranges From :0.04-0.3. It is filed as functional, Canis lupus familiaris.
Assay [9] deals with Canis familiaris. The assay is described as follows: Equieffective dose for mean arterial pressure in anesthetized dogs for a maximum dose of 0.3 mg/kg. 0.07-0.3. It is filed as functional, Canis lupus familiaris, Artery.
Assay [10] concerns Canis familiaris. Kind of assay: Equieffective dose for contractility in anesthetized dogs for a maximum dose of 0.3 mg/kg. Values Ranges From :0.01-0.2. It is filed as functional, Canis lupus familiaris.
Assay [11] has as its system Canis familiaris. Kind of assay: Equieffective dose for heart rate in anesthetized dogs for a maximum dose of 0.3 mg/kg. Values Ranges From :0.02-0.2. It counts as functional, Canis lupus familiaris.
The test system of assay [12] is Canis familiaris. The assay is described as follows: Equieffective dose for heart rate in anesthetized dogs for a maximum dose of 3.0 mg/kg. Values ranges from :0.05-0.2. It is filed as functional, Canis lupus familiaris.
Assay [13] concerns Canis familiaris. The assay is described as follows: Equieffective dose for contractility in anesthetized dogs for a maximum dose of 3.0 mg/kg. It is filed as functional, Canis lupus familiaris.
The subject of assay [14] is Canis familiaris. The assay is described as follows: Equieffective dose for mean arterial pressure in anesthetized dogs for a maximum dose of 3.0 mg/kg. Values Ranges From: 0.2-2.4. It counts as functional, Canis lupus familiaris, Artery.
The species entered for assay [15] is Mustela putorius furo. Kind of assay: Inotropic activity as dose required to cause 20% positive or negative change in contractile force of papillary muscle from ferret (F). It is filed as functional. The settings on record: Muscle tissue.
For assay [16], the system named is Canis familiaris. The assay is described as follows: Equieffective dose for heart rate in anesthetized dogs for a maximum dose of 3.0 mg/kg. Values Ranges From :0.08-0.6. It counts as functional, Canis lupus familiaris.
Assay [17] relates to Canis familiaris. The assay is described as follows: Equieffective dose for mean arterial pressure in anesthetized dogs for a maximum dose of 3.0 mg/kg. Values Ranges From :0.6-1.5. It counts as functional, Canis lupus familiaris, Artery.
The test system of assay [18] is Canis familiaris. The assay is described as follows: Equieffective dose for contractility in anesthetized dogs for a maximum dose of 3.0 mg/kg. Values Ranges From :0.05-0.9. It counts as functional, Canis lupus familiaris.
Assay [19] has as its system Canis familiaris. Kind of assay: Equieffective dose for heart rate in anesthetized dogs for a maximum dose of 3.0 mg/kg. Values Ranges From:0.7-2. It counts as functional, Canis lupus familiaris.
Assay [20] has as its system Canis familiaris. Kind of assay: Equieffective dose for contractility in anesthetized dogs for a maximum dose of 3.0 mg/kg. Values Ranges From:0.1-0.4. It is filed as functional, Canis lupus familiaris.
Assay [21] has as its system Canis familiaris. The assay is described as follows: Equieffective dose for mean arterial pressure in anesthetized dogs for a maximum dose of 3.0 mg/kg. Values Ranges From:0.1-1.4. It is filed as functional, Canis lupus familiaris, Artery.
Assay [22] has as its system Canis familiaris. The assay is described as follows: Equieffective dose for heart rate in anesthetized dogs for a maximum dose of 3.0 mg/kg. Values Ranges From :0.3-1.0. It is filed as functional, Canis lupus familiaris.
The test system of assay [23] is Canis familiaris. The assay is described as follows: Equieffective dose for contractility in anesthetized dogs for a maximum dose of 3.0 mg/kg. Values Ranges From :0.2-1.0. It counts as functional, Canis lupus familiaris.
Assay [24] has as its system Canis familiaris. Kind of assay: Equieffective dose for mean arterial pressure in anesthetized dogs for a maximum dose of 3.0 mg/kg. Values Ranges From :2.0. It is filed as functional, Canis lupus familiaris, Artery.
The subject of assay [25] is Canis familiaris. The assay is described as follows: Equieffective dose for mean arterial pressure in anesthetized dogs for a maximum dose of 0.1 mg/kg. Values Ranges From :0.02-0.04. It counts as functional, Canis lupus familiaris, Artery.
The test system of assay [26] is Canis familiaris. Kind of assay: Equieffective dose for contractility in anesthetized dogs for a maximum dose of 0.1 mg/kg. Values Ranges From :0.005-0.07. It counts as functional, Canis lupus familiaris.
Assay [27] relates to Canis familiaris. Kind of assay: Equieffective dose for heart rate in anesthetized dogs for a maximum dose of 0.1 mg/kg. Values Ranges From :0.009-0.02. It counts as functional, Canis lupus familiaris.

The structures appear in SMILES notation.

Molecule `CCc1[nH]c(O)nc1C(=O)c1ccc(-n2ccnc2C(C)C)cc1` returned a C20 in the assay filed under Mustela putorius furo [1] of 16.3 µM. In addition, the IC50 – broadly, the concentration that gives 50% inhibition – in [2] stood at 40 µM.
The matching figures for `CCc1[nH]c(O)nc1C(=O)c1ccc(-n2ccnc2C)cc1C`: 1.3 µM and 73 µM.
The matching figures for `CCc1[nH]c(O)nc1C(=O)c1ccc(-n2ccnc2)c(C)c1`: 0.05 µM and 2 µM.
Molecule `CCc1[nH]c(O)nc1C(=O)c1ccc(-c2ncc[nH]2)cc1` gave a C20 in the assay listed under Mustela putorius furo [1] of 0.4 µM. In assay [2], this molecule had an IC50 of 15 µM.
With `CCc1[nH]c(O)nc1C(=O)c1ccc(-n2ccnc2C)cc1`, the “Mean arterial blood pressure” value in the assay on Canis familiaris [3] turned out to be 0.3. In addition, the “Contractility (LV dP/dt)” value in the assay with Canis familiaris [4] is 0.03. The molecule further displayed a Heart rate in the assay with Canis familiaris [5] of 0.3. This molecule also gave a C20 in the assay filed under Mustela putorius furo [1] of 0.7 µM.
With `CCc1[nH]c(O)nc1C(=O)c1ccc(-n2ccnc2)cc1C`, the C20 in the assay listed under Mustela putorius furo [1] was determined as 0.2 µM. The IC50 in assay [2] is 4 µM.
For the molecule `Cc1nc(=O)c(C#N)c(NCc2cccnc2)[nH]1` [PELRINONE], the “Mean arterial blood pressure” value in the assay on Canis familiaris [6] came out at 0.4. Also, in the assay with Canis familiaris [7], the “Contractility (LV dP/dt)” value amounted to 0.04. In addition, the Heart rate in the assay on Canis familiaris [8] amounted to 0.1. Also, the C20 in the assay listed under Mustela putorius furo [1] stood at 0.23 µM. In assay [2], this molecule returned an IC50 of 4 µM.
On to `Cc1[nH]c(=O)c(C#N)cc1-c1ccncc1` [MILRINONE], for which, in the assay with Canis familiaris [9], the “Mean arterial blood pressure” value was found to be 0.2. Moreover, in the assay with Canis familiaris [10], the “Contractility (LV dP/dt)” value was determined as 0.09. Besides, the Heart rate in the assay with Canis familiaris [11] was 0.06. The same molecule returned a C20 in the assay filed under Mustela putorius furo [1] of 0.57 µM.
Molecule `Cc1[nH]c(O)nc1C(=O)c1ccc(-n2ccnc2)cc1` yielded a Heart rate in the assay with Canis familiaris [12] of 0.1. Besides, in the assay with Canis familiaris [13], the “Contractility (LV dP/dt)” value is “<=0.1”. In addition, the “Mean arterial blood pressure” value with Canis familiaris [14] is 0.9. In addition, the C20 in the assay listed under Mustela putorius furo [1] came out at 0.1 µM. The IC50 in assay [2] was determined as 6 µM.
Molecule `CCc1[nH]c(O)nc1C(=O)c1ccc(Cn2ccnc2)cc1` gave a C20 in the assay listed under Mustela putorius furo [1] of 4 µM. In [2], the IC50 came to 30 µM.
For `CCc1[nH]c(O)nc1C(=O)c1cccc(-n2ccnc2)c1`, in that order: 0.1 µM and 23 µM.
Take `Cc1[nH]c(O)nc1C(=O)c1ccc(-n2cnc3ccccc32)cc1`: the C20 in the assay filed under Mustela putorius furo [1] is 11 µM. In addition, the IC50 in assay [2] was found to be 20 µM.
For the molecule `CCc1[nH]c(O)nc1C(=O)c1ccc(-n2ccnc2C)c(C)c1`, in the assay filed under Mustela putorius furo [1], the C20 came to 0.2 µM. For the same molecule, the IC50 in assay [2] was found to be 2 µM.
Regarding `CCc1[nH]c(O)nc1C(=O)c1ccc(-n2cc[n+](C)c2C)cc1`, the C20 result in the assay listed under Mustela putorius furo [15] is listed as “Not reached”. Further, the IC50 in assay [2] was more than 100 µM.
As to `CCCc1nccn1-c1ccc(C(=O)c2[nH]c(O)nc2CC)cc1`, the C20 in the assay listed under Mustela putorius furo [1] was determined as 1 µM. In addition, the IC50 in assay [2] stood at 29 µM.
For the molecule `O=C1CCC(c2ccc(-n3ccnc3)cc2)=NN1` [IMAZODAN], the Heart rate with Canis familiaris [16] is 0.3. For the same molecule, the “Mean arterial blood pressure” value in the assay with Canis familiaris [17] came out at 1. Further, the C20 in the assay filed under Mustela putorius furo [1] was determined as 0.3 µM. Besides, in the assay on Canis familiaris [18], the “Contractility (LV dP/dt)” value came to 0.3.
Consider `Cc1[nH]c(O)nc1C(=O)c1ccc(-n2ccnc2CO)cc1`, for which the C20 in the assay filed under Mustela putorius furo [1] was found to be 0.4 µM. Further, the IC50 in [2] came to 49 µM.
On to `CCc1[nH]c(O)nc1C(=O)c1ccc(-n2ccnc2CCC(C)C)cc1`, for which the C20 in the assay filed under Mustela putorius furo [1] turned out to be 21.7 µM. For the same molecule, the IC50 in assay [2] was 7 µM.
In the assay on Canis familiaris [19], `Cc1[nH]c(O)nc1C(=O)c1ccc(-n2ccnc2C)cc1` returned a Heart rate of 0.8. The “Contractility (LV dP/dt)” value in the assay with Canis familiaris [20] was found to be 0.3. For the same molecule, the “Mean arterial blood pressure” value with Canis familiaris [21] is 0.6. The C20 in the assay filed under Mustela putorius furo [1] was 1 µM. The molecule further displayed an IC50 in [2] of 30 µM.
Take `Cc1nc(O)[nH]c1C(=O)c1ccc(-n2c(C)nc(C)c2C)cc1`: the C20 result in the assay listed under Mustela putorius furo [15] is “Not reached”. For the same molecule, the IC50 in [2] was more than 100 µM.
On to `CCc1[nH]c(O)nc1C(=O)c1ccc(-n2cc(C)nc2CC)cc1`, for which the C20 in the assay filed under Mustela putorius furo [1] turned out to be 21 µM. For the same molecule, the IC50 in assay [2] was determined as 19 µM.
The molecule `CSc1ccc(C(=O)c2[nH]c(=O)[nH]c2C)cc1` [ENOXIMONE] showed a Heart rate in the assay with Canis familiaris [22] of 0.6. The “Contractility (LV dP/dt)” value in the assay on Canis familiaris [23] amounted to 0.7. Moreover, the “Mean arterial blood pressure” value in the assay on Canis familiaris [24] is recorded as 2. Also, in the assay filed under Mustela putorius furo [1], the C20 worked out at 3.18 µM.
For `Cc1cn(-c2ccc(C(=O)c3[nH]c(O)nc3C)cc2)cn1`, the C20 in the assay listed under Mustela putorius furo [1] amounted to 11 µM. The molecule further came in with an IC50 in assay [2] of 65 µM.
The molecule `CCc1[nH]c(O)nc1C(=O)c1ccc(-n2ccnc2CC)cc1` gave a C20 in the assay listed under Mustela putorius furo [1] of 0.1 µM. Also, in assay [2], the IC50 amounted to 25 µM.
For `Cc1[nH]c(O)nc1C(=O)c1ccc(-c2ncc[nH]2)cc1`, the C20 in the assay filed under Mustela putorius furo [1] was found to be 1.1 µM. For the same molecule, the IC50 in [2] was 27 µM.
`CCc1[nH]c(O)nc1C(=O)c1ccc(-n2ccnc2)cc1`: in the assay on Canis familiaris [25], the “Mean arterial blood pressure” value is 0.03. The “Contractility (LV dP/dt)” value in the assay with Canis familiaris [26] was determined as 0.02. The molecule also yielded a Heart rate in the assay with Canis familiaris [27] of 0.016. The same molecule returned a C20 in the assay filed under Mustela putorius furo [1] of 0.063 µM. The IC50 in assay [2] came out at 2 µM.
